{
  "source": "patent EP0617893B1",
  "about": "“Molluscicides” (SHELL INTE[…] […] B.V., priority 1993, dated 1994)",
  "key": {"Deroceras reticulatum [1]": {"system": "Deroceras reticulatum", "experiment": "Oral toxicity bait test (pellets in petri-dish), percentage control", "type": "in vivo", "settings": "72 h; for mortality at 2 % strength: 2 % active material in bait; for mortality at 4 % strength: read-out: % control", "procedure": "The molluscicidal activity of compounds used in the method of the invention was tested using, as a test mollusc, specimens of the adult grey field slug Deroceras reticulatum.\nThe oral toxicity of the compounds was assessed by presenting slugs with individually prepared experimental baits containing either 4% or 2% active material. These were compared with commercial baits containing 4% methiocarb (Draza) […] 6% metaldehyde (Slugit).\n2 test pellets were placed onto a 5 cm filter-paper in the centre of a 9 cm plastic petri-dish. Two adults specimens of the slug Deroceras reticulatum were introduced into each dish and the pellets moistened with a few drops of water to make them attractive to eat. A minimum of the two replicates was used for each compound. Blank baits moistened with an equivalent volume of water were used as controls.\nThe dishes were then stored in a large glass tank maintained at 12 to 16°C and >95% relative humidity. Assessments of the number of slugs affected were made at intervals up to 3 days after treatment. Slugs were considered to be affected or controlled by the bait if they were incapable of normal body movements and could not right themselves within 2 minutes.\nThe molluscicidal activity of two compounds specified in European Patent Specification No. 437 784 A1, was tested against slugs, Deroceras reticulatum, using the test method given in Example 1 and bait containing 4% active material in each case. • Comparative A is the compound of Example 2 of EP-A-437 784 • Comparative B is the compound of Example 3 of EP-A-437 784."}, "D. reticulatum": {"system": "D. reticulatum", "experiment": "Contact test: glass residue test", "type": "in vivo", "settings": "Deroceras reticulatum, read-out: % affected D. reticulatum", "procedure": "The contact action of Compounds Nos. 1, 3 and 4 was assessed in this Example, using a glass residue test.\nThe residual toxicity of compounds on glass was investigated by pipetting aliquots of an acetone/Triton X-100 test solution over the base of a 7 cm diameter glass petri-dish to achieve a concentration of 600 ppm. Four adult slugs (D. reticulatum) were introduced into each dish and slug mortality recorded over a 5 day period. Moistened sugar bran mix was provided as food 24 hours after exposure."}, "slugs": {"system": "slugs", "experiment": "Systemic activity: lettuce root dip, cut leaves fed to slugs", "type": "in vivo", "settings": "root dip 400 ppm", "procedure": "The action via systemic application of the Compound Nos. 1, 3 and 4 was assessed in this Example.\nTest solutions of the compounds were prepared by dissolving technical samples in 1 ml of acetone and making up to 50 ml with tap water. The roots of young 6 cm high lettuce plants were then washed clean with water and immersed in the test solution for a minimum of two days. For each bioassay individual leaves were cut from a lettuce plant and placed on a filter paper in a 9cm diameter petri-dish. 1 ml of water was pipetted onto each filter paper in order to keep the leaves reasonably moist during the assay. Two medium-sized slugs were introduced into each dish and the amount of leaf eaten and % control of slugs recorded over a two day period. The amount of compound applied as root dips was in the range of from 400 to 1000 ppm over a number of tests."}, "[2]": {"settings": "statement of DE-A-4111389; cited from earlier work"}, "Arion hortensis": {"system": "Arion hortensis", "experiment": "Bait test against a range of slug species", "type": "in vivo", "procedure": "(§1) The action of Compound No. 1 was assessed against a wide range of slug species, and against snails of the genus Cepaea, with bait containing 2%, 4% and 6% active ingredient. The action of a 4% Draza (trade name for a sluggicide sold by Bayer AG and containing the carbamate molluscicide methiocarb) bait was also assessed.\n(§2) The slug species utilised in the test were Milax budapestensis , a large slug which is a major pest of potatoes Deroceras reticulatum , grey field slug - a major field crop pest Arion hortensis , garden slug."}, "Deroceras reticulatum [3]": {"system": "Deroceras reticulatum", "experiment": "Bait test against a range of slug species", "type": "in vivo", "procedure": "as §1, §2"}, "Milax budapestensis": {"system": "Milax budapestensis", "experiment": "Bait test against a range of slug species", "type": "in vivo", "procedure": "as §1, §2"}, "[4]": {"system": "snails of the genus Cepaea", "experiment": "Bait test against snails", "type": "in vivo", "settings": "bait containing 2%, 4% and 6% active ingredient", "procedure": "as §1"}, "[5]": {"settings": "assessments up to 3 days after treatment"}, "[6]": {"settings": "4 % active material in bait, assessments up to 3 days after treatment"}, "[7]": {"settings": "bait containing 2%, 4% and 6% active ingredient"}},
  "note": "Like-named read-outs stand apart in the source and are kept apart here.",
  "data": [
    {"compound": "O=[N+]([O-])C=C1SCCN1Cc1cnc(Cl)c(Cl)c1", "note": "[compound 16]", "values": [
      {"measurement": "mortality at 2 % strength", "setting": "Deroceras reticulatum [1]; [5]", "value": 50, "unit": "%"}
    ]},
    {"compound": "O=[N+]([O-])C=C1NCCN1Cc1cccc2ccccc12", "note": "[compound 20]", "values": [
      {"measurement": "mortality at 2 % strength", "setting": "Deroceras reticulatum [1]; [5]", "value": 25, "unit": "%"}
    ]},
    {"compound": "O=[N+]([O-])C=C1SCCN1Cc1cc(Cl)no1", "note": "[compound 8]", "values": [
      {"measurement": "mortality at 2 % strength", "setting": "Deroceras reticulatum [1]; [5]", "value": 25, "unit": "%"}
    ]},
    {"compound": "O=[N+]([O-])C=C1NCCN1Cc1ccc(F)c(F)c1F", "note": "[compound 18]", "values": [
      {"measurement": "mortality at 2 % strength", "setting": "Deroceras reticulatum [1]; [5]", "value": 25, "unit": "%"}
    ]},
    {"compound": "O=[N+]([O-])C=C1NCCN1Cc1ccc(C(F)(F)F)cc1", "note": "[compound 22]", "values": [
      {"measurement": "mortality at 2 % strength", "setting": "Deroceras reticulatum [1]; [5]", "value": 50, "unit": "%"}
    ]},
    {"compound": "CNC(=O)Oc1cc(C)c(SC)c(C)c1", "note": "[methiocarb, reference compound]", "values": [
      {"measurement": "mortality at 4 % strength", "setting": "Deroceras reticulatum [1]", "value": 100, "unit": "%"}
    ]},
    {"compound": "O=[N+]([O-])C(CSCc1ccccc1)=C1NCCN1c1ccc(Cl)nc1", "note": "[compound 17]", "values": [
      {"measurement": "mortality at 2 % strength", "setting": "Deroceras reticulatum [1]; [5]", "value": 25, "unit": "%"}
    ]},
    {"compound": "O=[N+]([O-])C=C1NCCN1Cc1ccc(Cl)nc1", "note": "[compound 12]", "values": [
      {"measurement": "mortality at 4 % strength", "setting": "Deroceras reticulatum [1]; [6]", "value": 20, "unit": "%"}
    ]},
    {"compound": "Cc1cc(CN2CCSC2=C[N+](=O)[O-])on1", "note": "[compound 7]", "values": [
      {"measurement": "mortality at 2 % strength", "setting": "Deroceras reticulatum [1]; [5]", "value": 100, "unit": "%"}
    ]},
    {"compound": "O=[N+]([O-])C=C1NCCN1Cc1cc(C(F)(F)F)no1", "note": "[compound 4]", "values": [
      {"measurement": "mortality at 2 % strength", "setting": "Deroceras reticulatum [1]; [5]", "value": 100, "unit": "%"},
      {"measurement": "mortality at 600 ppm", "setting": "D. reticulatum; 24 hours", "value": 25, "unit": "%"},
      {"measurement": "mortality at 600 ppm", "setting": "D. reticulatum; 48 hours", "value": 0, "unit": "%"},
      {"measurement": "mortality at 600 ppm", "setting": "D. reticulatum; 120 hours", "value": 25, "unit": "%"}
    ]},
    {"compound": "C=C(C)CN1CCCNC1=C[N+](=O)[O-]", "note": "[compound 23]", "values": [
      {"measurement": "mortality at 2 % strength", "setting": "Deroceras reticulatum [1]; [5]", "value": 25, "unit": "%"}
    ]},
    {"compound": "Cc1cc(CN2CCNC2=N[N+](=O)[O-])on1", "note": "[compound 11]", "values": [
      {"measurement": "mortality at 2 % strength", "setting": "Deroceras reticulatum [1]; [5]", "value": 100, "unit": "%"}
    ]},
    {"compound": "O=[N+]([O-])N=C1NCCN1Cc1cc(Br)no1", "note": "[compound 6]", "values": [
      {"measurement": "mortality at 2 % strength", "setting": "Deroceras reticulatum [1]; [5]", "value": 25, "unit": "%"}
    ]},
    {"compound": "O=[N+]([O-])N=C1NCCN1Cc1cc(Cl)no1", "note": "[compound 2]", "values": [
      {"measurement": "mortality at 2 % strength", "setting": "Deroceras reticulatum [1]; [5]", "value": 50, "unit": "%"}
    ]},
    {"compound": "Cc1cc(CN2CCNC2=C[N+](=O)[O-])on1", "note": "[compound 3]", "values": [
      {"measurement": "mortality at 2 % strength", "setting": "Deroceras reticulatum [1]; [5]", "value": 100, "unit": "%"},
      {"measurement": "systemic activity", "setting": "slugs", "value": "Activity was observed"},
      {"measurement": "mortality at 600 ppm", "setting": "D. reticulatum; 24 hours", "value": 75, "unit": "%"},
      {"measurement": "mortality at 600 ppm", "setting": "D. reticulatum; 48 hours", "value": 100, "unit": "%"},
      {"measurement": "mortality at 600 ppm", "setting": "D. reticulatum; 120 hours", "value": 100, "unit": "%"}
    ]},
    {"compound": "O=[N+]([O-])C=C1NCCN1Cc1cc(Br)no1", "note": "[compound 5]", "values": [
      {"measurement": "mortality at 2 % strength", "setting": "Deroceras reticulatum [1]; [5]", "value": 50, "unit": "%"}
    ]},
    {"compound": "O=[N+]([O-])N=C1NCCN1Cc1ccc(Cl)nc1", "note": "[Compound No. 13, Imidacloprid]", "values": [
      {"measurement": "mortality at 4 % strength", "setting": "Deroceras reticulatum [1]; [6]", "value": 30, "unit": "%"},
      {"measurement": "molluscicidal effectiveness", "setting": "[2]", "value": "only a relatively poorly developed molluscicidal effectiveness"}
    ]},
    {"compound": "O=[N+]([O-])C(CSc1ccc(Cl)cc1)=C1NCCN1Cc1cc(Br)no1", "note": "[compound 10]", "values": [
      {"measurement": "mortality at 2 % strength", "setting": "Deroceras reticulatum [1]; [5]", "value": 25, "unit": "%"}
    ]},
    {"compound": "O=[N+]([O-])C(=C1NCCN1Cc1cc(Cl)no1)[N+](=O)[O-]", "note": "[compound 9]", "values": [
      {"measurement": "mortality at 2 % strength", "setting": "Deroceras reticulatum [1]; [5]", "value": 50, "unit": "%"}
    ]},
    {"compound": "O=[N+]([O-])C=C1NCCN1Cc1cnc(Cl)c(Cl)c1", "note": "[compound 14]", "values": [
      {"measurement": "mortality at 4 % strength", "setting": "Deroceras reticulatum [1]; [6]", "value": 20, "unit": "%"}
    ]},
    {"compound": "O=[N+]([O-])C=C1NCCN1Cc1cc(Cl)no1", "note": "[Compound No. 1]", "values": [
      {"measurement": "mortality at 4 % strength", "setting": "Deroceras reticulatum [1]; [6]", "value": 100, "unit": "%"},
      {"measurement": "systemic activity", "setting": "slugs", "value": "Activity was observed"},
      {"measurement": "mortality at 600 ppm", "setting": "D. reticulatum; 24 hours", "value": 100, "unit": "%"},
      {"measurement": "mortality at 600 ppm", "setting": "D. reticulatum; 48 hours", "value": 75, "unit": "%"},
      {"measurement": "mortality at 600 ppm", "setting": "D. reticulatum; 120 hours", "value": 100, "unit": "%"},
      {"measurement": "effectiveness compared with 4% Draza bait", "setting": "Arion hortensis; 4% bait", "value": "more effective than the 4% Draza bait"},
      {"measurement": "control of slugs", "setting": "Arion hortensis; [7]", "value": "controlled"},
      {"measurement": "effectiveness compared with 4% Draza bait", "setting": "Deroceras reticulatum [3]; 4% bait", "value": "more effective than the 4% Draza bait"},
      {"measurement": "control of slugs", "setting": "Deroceras reticulatum [3]; [7]", "value": "controlled"},
      {"measurement": "effectiveness compared with 4% Draza bait", "setting": "Milax budapestensis; 4% bait", "value": "more effective than the 4% Draza bait"},
      {"measurement": "control of slugs", "setting": "Milax budapestensis; [7]", "value": "controlled"},
      {"measurement": "control of snails", "setting": "[4]", "value": "controlled"}
    ]},
    {"compound": "Cc1cc(CN2CCCNC2=C[N+](=O)[O-])on1", "note": "[compound 24]", "values": [
      {"measurement": "mortality at 2 % strength", "setting": "Deroceras reticulatum [1]; [5]", "value": 25, "unit": "%"}
    ]},
    {"compound": "Cc1ccc(CN2CCNC2=C[N+](=O)[O-])cc1[N+](=O)[O-]", "note": "[compound 21]", "values": [
      {"measurement": "mortality at 2 % strength", "setting": "Deroceras reticulatum [1]; [5]", "value": 25, "unit": "%"}
    ]},
    {"compound": "O=[N+]([O-])N=C1NCCN1Cc1cnc(Cl)c(Cl)c1", "note": "[compound 15]", "values": [
      {"measurement": "mortality at 2 % strength", "setting": "Deroceras reticulatum [1]; [5]", "value": 25, "unit": "%"}
    ]}
  ]
}
